Results from ChEMBL document CHEMBL1201862, “PubChem BioAssay data set” (2004).
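These data come from cells grown in 96-well plates and exposed to compound for 48 hours at five concentrations. GI50: concentration for 50% inhibition of growth.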 The source made the active and inactive calls. Rule as the data show it: active = GI50 up to about 1.1 µM and inactive = higher.

How the values were obtained:
Assay in all cases: DTP human tumour cell line panel, 48 h
[1] = system: 786-0
[2] = system: A498
[3] = system: A549
[4] = system: ACHN
[5] = system: BT-549
[6] = system: COLO 205
[7] = system: DU-145
[8] = system: EKVX
[9] = system: HCT-116
[10] = system: HCT-15
[11] = system: HOP-62
[12] = system: LOX IMVI
[13] = system: M14
[14] = system: MCF7
[15] = system: NCI-H226
[16] = system: NCI-H23
[17] = system: NCI-H460
[18] = system: NCI-H522
[19] = system: NCI/ADR-RES
[20] = system: OVCAR-5
[21] = system: OVCAR-8
[22] = system: PC-3
[23] = system: RXF 393
[24] = system: SF-295
[25] = system: SK-MEL-5
[26] = system: SK-OV-3
[27] = system: SNB-19
[28] = system: SNB-75
[29] = system: TK-10
[30] = system: UACC-257
[31] = system: UACC-62
[32] = system: UO-31
[33] = system: CAKI-1
[34] = system: CCRF-CEM
[35] = system: HCC 2998
[36] = system: HL-60
[37] = system: HT-29
[38] = system: IGROV-1
[39] = system: K562
[40] = system: KM12
[41] = system: MDA-MB-231
[42] = system: MDA-MB-435
[43] = system: MOLT-4
[44] = system: OVCAR-3
[45] = system: OVCAR-4
[46] = system: RPMI-8226
[47] = system: SF-268
[48] = system: SF-539
[49] = system: SK-MEL-28
[50] = system: SK-MEL-2
[51] = system: SN12C
[52] = system: SR
[53] = system: SW-620
[54] = system: T47D
[55] = system: U-251

## CCN1C/C(=C\c2ccc(Cl)cc2)C2=NN(c3ccccc3)C(c3ccc(Cl)cc3)C2C1 (stereo unspecified)
[1]
  GI50: > 100 µM (inactive)
[2]
  GI50: > 100 µM (inactive)
[3]
  GI50: > 100 µM (inactive)
[4]
  GI50: > 100 µM (inactive)
[5]
  GI50: > 100 µM (inactive)
[6]
  GI50: > 100 µM (inactive)
[7]
  GI50: > 100 µM (inactive)
[8]
  GI50: > 100 µM (inactive)
[9]
  GI50: > 100 µM (inactive)
[10]
  GI50: > 100 µM
[11]
  GI50: > 100 µM (inactive)
[12]
  GI50: > 100 µM (inactive)
[13]
  GI50: > 100 µM (inactive)
[14]
  GI50: 53.1 µM (inactive)
[15]
  GI50: > 100 µM (inactive)
[16]
  GI50: > 100 µM (inactive)
[17]
  GI50: > 100 µM (inactive)
[18]
  GI50: > 100 µM (inactive)
[19]
  GI50: > 100 µM (inactive)
[20]
  GI50: > 100 µM (inactive)
[21]
  GI50: > 100 µM (inactive)
[22]
  GI50: > 100 µM (inactive)
[23]
  GI50: > 100 µM (inactive)
[24]
  GI50: > 100 µM (inactive)
[25]
  GI50: > 100 µM (inactive)
[26]
  GI50: > 100 µM (inactive)
[27]
  GI50: > 100 µM (inactive)
[28]
  GI50: > 100 µM (inactive)
[29]
  GI50: > 100 µM (inactive)
[30]
  GI50: > 100 µM (inactive)
[31]
  GI50: > 100 µM (inactive)
[32]
  GI50: > 100 µM (inactive)

## O=c1c2ncn(C3CCCO3)c2n(-c2ccccc2)c(=S)n1-c1ccccc1 (stereo unspecified)
[1]
  GI50: > 100 µM (inactive)
[2]
  GI50: > 100 µM (inactive)
[3]
  GI50: > 100 µM (inactive)
[4]
  GI50: > 100 µM (inactive)
[5]
  GI50: > 100 µM (inactive)
[33]
  GI50: > 100 µM (inactive)
[34]
  GI50: > 100 µM (inactive)
[6]
  GI50: > 100 µM (inactive)
[7]
  GI50: > 100 µM (inactive)
[8]
  GI50: > 100 µM (inactive)
[35]
  GI50: > 100 µM (inactive)
[9]
  GI50: > 100 µM (inactive)
[10]
  GI50: > 100 µM
[36]
  GI50: > 100 µM (inactive)
[11]
  GI50: > 100 µM (inactive)
[37]
  GI50: > 100 µM (inactive)
[38]
  GI50: > 100 µM (inactive)
[39]
  GI50: > 100 µM (inactive)
[40]
  GI50: > 100 µM (inactive)
[12]
  GI50: > 100 µM (inactive)
[13]
  GI50: > 100 µM (inactive)
[14]
  GI50: > 100 µM (inactive)
[41]
  GI50: > 100 µM (inactive)
[42]
  GI50: > 100 µM (inactive)
[43]
  GI50: > 100 µM (inactive)
[15]
  GI50: > 100 µM (inactive)
[16]
  GI50: > 100 µM (inactive)
[17]
  GI50: > 100 µM (inactive)
[18]
  GI50: > 100 µM (inactive)
[19]
  GI50: > 100 µM (inactive)
[44]
  GI50: > 100 µM (inactive)
[45]
  GI50: > 100 µM (inactive)
[20]
  GI50: > 100 µM (inactive)
[21]
  GI50: > 100 µM (inactive)
[22]
  GI50: > 100 µM (inactive)
[46]
  GI50: > 100 µM (inactive)
[23]
  GI50: > 100 µM (inactive)
[47]
  GI50: > 100 µM (inactive)
[24]
  GI50: > 100 µM (inactive)
[48]
  GI50: > 100 µM (inactive)
[49]
  GI50: > 100 µM (inactive)
[50]
  GI50: > 100 µM (inactive)
[25]
  GI50: > 100 µM (inactive)
[26]
  GI50: > 100 µM (inactive)
[51]
  GI50: > 100 µM (inactive)
[28]
  GI50: 97.7 µM (inactive)
[52]
  GI50: > 100 µM (inactive)
[53]
  GI50: > 100 µM (inactive)
[54]
  GI50: > 100 µM (inactive)
[29]
  GI50: > 100 µM (inactive)
[55]
  GI50: > 100 µM (inactive)
[30]
  GI50: > 100 µM (inactive)
[31]
  GI50: > 100 µM (inactive)
[32]
  GI50: > 100 µM (inactive)
